Patent US4988678A, “Combinations of FU and BVU as anti-adenocarcinoma agents” (priority 1987, dated 1991)

Experiments:
[1] = human body, cited from earlier work
adenocarcinoma 755 = test: Antitumor activity against subcutaneous adenocarcinoma 755 in BDF1 mice, oral FU or FU + BVDU (Example 1); conditions: for T/C (percent tumor weight with regard to control) / tumor weight, Mean ± SD: p.o. daily, 5 days, day 12
Description: Groups of 6 male BDF1 -mice having a body weight of 21 to 23 g, were subcutaneously inoculated on day 0 with tumor cells of the type adenocarcinoma 755 at a dose of 5=10^5 cells per mouse. Thereupon, the compound FU (or a combination of FU and BVDU) was perorally administered in a predetermined daily dose during 5 consecutive days, starting 24 hours after the inoculation with tumor cells. On day 12, the tumor weight was determined and compared with the tumor weight in a non-treated control group.

[2] = Toxicity / deaths of mice in Example 1; format: in vivo, male BDF1 mice
[3] = cited from earlier work
[4] = test system: herpes simplex virus type 1; conditions: infections caused by herpes simplex virus type 1; cited from earlier work
varicella zoster virus = conditions: infections caused by varicella zoster virus; cited from earlier work
Epstein-Barr virus = conditions: infections caused by Epstein-Barr virus; cited from earlier work
replication of viruses = conditions: BVU as such; cited from earlier work
[5] = FU 30 mg/kg, p.o. daily, 5 days

Compound: O=c1[nH]c(=O)n(C2CCCO2)cc1F (stereo not shown) [FT, N1-(2'-tetrahydrofuryl)-5-fluorouracil]
- conversion to FU [1]: converted slowly to FU

Compound: O=c1[nH]cc(F)c(=O)[nH]1 [FU, 5-fluorouracil]
- T/C (percent tumor weight with regard to control) (adenocarcinoma 755; FU 5 mg/kg): 122%
- tumor weight, Mean ± SD (adenocarcinoma 755; FU 5 mg/kg): 2523 ± 389 mg
- T/C (percent tumor weight with regard to control) (adenocarcinoma 755; FU 10 mg/kg): 85%
- tumor weight, Mean ± SD (adenocarcinoma 755; FU 10 mg/kg): 1759 ± 726 mg
- T/C (percent tumor weight with regard to control) (adenocarcinoma 755; FU 20 mg/kg): 32%
- tumor weight, Mean ± SD (adenocarcinoma 755; FU 20 mg/kg): 675 ± 355 mg
- therapeutic index (ratio of LD50 to ED50) (adenocarcinoma 755; FU used alone): 2
- ED50 (adenocarcinoma 755; Mus musculus, po, 288 h, read-out: ED50 (dose causing a 50% reduction of T/C)): 15 mg/kg
- died (animals of group) [2, 5]: 3/6
- toxicity (in words) [2, 5]: Toxic
- LD50 ([2]; mouse, in vivo, po, FU used alone, from the Table (doses in mg/kg), read-out: LD50 (50% lethal dose)): 30 mg/kg
- degradation in the liver [3]: degraded rather rapidly

Compound: O=c1[nH]c(=O)n([C@H]2C[C@H](O)[C@@H](CO)O2)cc1/C=C/Br [BVDU, (E)-5-(2-bromovinyl)-2'-deoxyuridine]
- antiviral activity [4]: active
- antiviral activity (varicella zoster virus): active
- antiviral activity (Epstein-Barr virus): active
- conversion to BVU [1]: rapidly converted

Compound: O=c1[nH]cc(/C=C/Br)c(=O)[nH]1 [BVU, 5-(2-bromovinyl)uracil]
- activity against replication of viruses (replication of viruses): inactive
- presence in the blood stream ([1]; after conversion from BVDU): remains present in the blood stream for a relatively long period
